Assays:
Assay in all cases: Test F preemergence/postemergence greenhouse plant response rating 0 to 100
blackgrass = type: in vivo, Alopecurus myosuroides; details: PREEMERGENCE, Rate 250 g/ha, 0 to 100 scale, Blackgrass (2)
Source text: (§1) Compounds evaluated in this test were formulated in a non-phytoxic solvent and applied to the soil surface before plant seedlings emerged (preemergence application) and to plants that were in the one-to-four leaf stage (postemergence application). A sandy loam soil was used for the preemergence test while a mixture of sandy loam soil and greenhouse potting mix in a 60:40 ratio was used for the postemergence test. Test compounds were applied within approximately one day after planting seeds for the preemergence test. Plantings of these crops and weed species were adjusted to produce plants of appropriate size for the postemergence test. All plant species were grown using normal greenhouse practices. Crop and weed species include winter barley (Hordeum vulgare cv. ‘Igri’), blackgrass (Alopecurus myosuroides), chickweed (Stellaria media), downy brome (Bromus tectorum), field violet (Viola arvensis), galium (Galium aparine), green foxtail (Setaria viridis), kochia (Kochia scoparia), lambsquarters (Chenopodium album), speedwell (Veronica persica), rape (Brassica napus), ryegrass (Lolium multiflorum), sugar beet (Beta vulgaris cv. ‘USl’), sunflower (Helianthus annuus cv. ‘Russian Giant’), spring wheat (Triticum aestivum cv. ‘ERA’), winter wheat (Triticum aestivum cv. ‘Talent’), wild buckwheat (Polygonum convolvulus), wild mustard (Sinapis arvensis), wild oat (Avena fatua), and wild radish (Raphanus raphanistrum). Blackgrass, galium and wild oat were treated at two growth stages. […] Treated plants and untreated controls were maintained in a greenhouse for approximately 21 to 28 days, after which all treated plants were compared to untreated controls and visually evaluated. […] A dash response (-) means no test result.

downy brome = type: in vivo, Bromus tectorum; details: 0 to 100 scale
Source text: as §1

wild radish = type: in vivo, Raphanus raphanistrum; details: 0 to 100 scale
Source text: as §1

speedwell = type: in vivo, Veronica persica; details: 0 to 100 scale
Source text: as §1

sunflower = type: in vivo, Helianthus annuus cv. ‘Russian Giant’; details: 0 to 100 scale
Source text: as §1

sugar beet = type: in vivo, Beta vulgaris cv. ‘USl’; details: 0 to 100 scale
Source text: as §1

winter barley = type: in vivo, Hordeum vulgare cv. ‘Igri’; details: 0 to 100 scale
Source text: as §1

winter wheat = type: in vivo, Triticum aestivum cv. ‘Talent’; details: 0 to 100 scale
Source text: as §1

ryegrass = type: in vivo, Lolium multiflorum; details: 0 to 100 scale
Source text: as §1

C#CCOc1cc(-c2nn3c(c2Br)CCCC3)c(F)cc1Cl [Compound 26]
Blackgrass (2) plant response rating (blackgrass): 40 | Downy brome plant response rating (downy brome; POSTEMERGENCE, Rate 4 g/ha): 0 | Downy brome plant response rating (downy brome; POSTEMERGENCE, Rate 8 g/ha): 0 | Downy brome plant response rating (downy brome; POSTEMERGENCE, Rate 16 g/ha): 0 | Downy brome plant response rating (downy brome; POSTEMERGENCE, Rate 32 g/ha): 0 | Downy brome plant response rating (downy brome; POSTEMERGENCE, Rate 64 g/ha): 30 | Downy brome plant response rating (downy brome; POSTEMERGENCE, Rate 125 g/ha): 50 | Downy brome plant response rating (downy brome; POSTEMERGENCE, Rate 250 g/ha): 10 | Downy brome plant response rating (downy brome; PREEMERGENCE, Rate 4 g/ha): 0 | Downy brome plant response rating (downy brome; PREEMERGENCE, Rate 8 g/ha): 0 | Downy brome plant response rating (downy brome; PREEMERGENCE, Rate 16 g/ha): 0 | Downy brome plant response rating (downy brome; PREEMERGENCE, Rate 32 g/ha): 0 | Downy brome plant response rating (downy brome; PREEMERGENCE, Rate 64 g/ha): 0 | Downy brome plant response rating (downy brome; PREEMERGENCE, Rate 125 g/ha): 30 | Downy brome plant response rating (downy brome; PREEMERGENCE, Rate 250 g/ha): 40 | Wild radish plant response rating (wild radish; POSTEMERGENCE, Rate 4 g/ha): 0 | Wild radish plant response rating (wild radish; POSTEMERGENCE, Rate 8 g/ha): 20 | Wild radish plant response rating (wild radish; POSTEMERGENCE, Rate 16 g/ha): 60 | Wild radish plant response rating (wild radish; POSTEMERGENCE, Rate 32 g/ha): 60 | Wild radish plant response rating (wild radish; POSTEMERGENCE, Rate 64 g/ha): 60 | Wild radish plant response rating (wild radish; POSTEMERGENCE, Rate 125 g/ha): 60 | Wild radish plant response rating (wild radish; POSTEMERGENCE, Rate 250 g/ha): 60 | Wild radish plant response rating (wild radish; PREEMERGENCE, Rate 4 g/ha): 0 | Wild radish plant response rating (wild radish; PREEMERGENCE, Rate 8 g/ha): 0 | Wild radish plant response rating (wild radish; PREEMERGENCE, Rate 16 g/ha): 0 | Wild radish plant response rating (wild radish; PREEMERGENCE, Rate 32 g/ha): 0 | Wild radish plant response rating (wild radish; PREEMERGENCE, Rate 64 g/ha): 40 | Wild radish plant response rating (wild radish; PREEMERGENCE, Rate 125 g/ha): 70 | Wild radish plant response rating (wild radish; PREEMERGENCE, Rate 250 g/ha): 100 | Persn Speedwell plant response rating (speedwell; POSTEMERGENCE, Rate 4 g/ha): 60 | Persn Speedwell plant response rating (speedwell; POSTEMERGENCE, Rate 8 g/ha): 60 | Persn Speedwell plant response rating (speedwell; POSTEMERGENCE, Rate 32 g/ha): 100 | Persn Speedwell plant response rating (speedwell; POSTEMERGENCE, Rate 64 g/ha): 100 | Persn Speedwell plant response rating (speedwell; POSTEMERGENCE, Rate 125 g/ha): 100 | Persn Speedwell plant response rating (speedwell; POSTEMERGENCE, Rate 250 g/ha): 100 | Persn Speedwell plant response rating (speedwell; PREEMERGENCE, Rate 4 g/ha): 50 | Persn Speedwell plant response rating (speedwell; PREEMERGENCE, Rate 8 g/ha): 80 | Persn Speedwell plant response rating (speedwell; PREEMERGENCE, Rate 16 g/ha): 100 | Persn Speedwell plant response rating (speedwell; PREEMERGENCE, Rate 32 g/ha): 100 | Persn Speedwell plant response rating (speedwell; PREEMERGENCE, Rate 64 g/ha): 100 | Persn Speedwell plant response rating (speedwell; PREEMERGENCE, Rate 125 g/ha): 100 | Persn Speedwell plant response rating (speedwell; PREEMERGENCE, Rate 250 g/ha): 100 | Sunflower plant response rating (sunflower; POSTEMERGENCE, Rate 4 g/ha): 0 | Sunflower plant response rating (sunflower; POSTEMERGENCE, Rate 8 g/ha): 0 | Sunflower plant response rating (sunflower; POSTEMERGENCE, Rate 16 g/ha): 0 | Sunflower plant response rating (sunflower; POSTEMERGENCE, Rate 32 g/ha): 20 | Sunflower plant response rating (sunflower; POSTEMERGENCE, Rate 64 g/ha): 60 | Sunflower plant response rating (sunflower; POSTEMERGENCE, Rate 125 g/ha): 100 | Sunflower plant response rating (sunflower; POSTEMERGENCE, Rate 250 g/ha): 60 | Sunflower plant response rating (sunflower; PREEMERGENCE, Rate 4 g/ha): 0 | Sunflower plant response rating (sunflower; PREEMERGENCE, Rate 8 g/ha): 0 | Sunflower plant response rating (sunflower; PREEMERGENCE, Rate 16 g/ha): 0 | Sunflower plant response rating (sunflower; PREEMERGENCE, Rate 32 g/ha): 0 | Sunflower plant response rating (sunflower; PREEMERGENCE, Rate 64 g/ha): 0 | Sunflower plant response rating (sunflower; PREEMERGENCE, Rate 125 g/ha): 10 | Sunflower plant response rating (sunflower; PREEMERGENCE, Rate 250 g/ha): 60 | Sugar beet plant response rating (sugar beet; POSTEMERGENCE, Rate 4 g/ha): 100 | Sugar beet plant response rating (sugar beet; POSTEMERGENCE, Rate 8 g/ha): 100 | Sugar beet plant response rating (sugar beet; POSTEMERGENCE, Rate 16 g/ha): 100 | Sugar beet plant response rating (sugar beet; POSTEMERGENCE, Rate 32 g/ha): 100 | Sugar beet plant response rating (sugar beet; POSTEMERGENCE, Rate 64 g/ha): 100 | Sugar beet plant response rating (sugar beet; POSTEMERGENCE, Rate 125 g/ha): 100 | Sugar beet plant response rating (sugar beet; POSTEMERGENCE, Rate 250 g/ha): 100 | Sugar beet plant response rating (sugar beet; PREEMERGENCE, Rate 4 g/ha): 0 | Sugar beet plant response rating (sugar beet; PREEMERGENCE, Rate 8 g/ha): 50 | Sugar beet plant response rating (sugar beet; PREEMERGENCE, Rate 16 g/ha): 60 | Sugar beet plant response rating (sugar beet; PREEMERGENCE, Rate 32 g/ha): 70 | Sugar beet plant response rating (sugar beet; PREEMERGENCE, Rate 64 g/ha): 100 | Sugar beet plant response rating (sugar beet; PREEMERGENCE, Rate 125 g/ha): 100 | Sugar beet plant response rating (sugar beet; PREEMERGENCE, Rate 250 g/ha): 100 | Winter Barley plant response rating (winter barley; POSTEMERGENCE, Rate 4 g/ha): 0 | Winter Barley plant response rating (winter barley; POSTEMERGENCE, Rate 8 g/ha): 0 | Winter Barley plant response rating (winter barley; POSTEMERGENCE, Rate 16 g/ha): 0 | Winter Barley plant response rating (winter barley; POSTEMERGENCE, Rate 32 g/ha): 20 | Winter Barley plant response rating (winter barley; POSTEMERGENCE, Rate 64 g/ha): 30 | Winter Barley plant response rating (winter barley; POSTEMERGENCE, Rate 125 g/ha): 30 | Winter Barley plant response rating (winter barley; POSTEMERGENCE, Rate 250 g/ha): 30 | Winter Barley plant response rating (winter barley; PREEMERGENCE, Rate 4 g/ha): 0 | Winter Barley plant response rating (winter barley; PREEMERGENCE, Rate 8 g/ha): 0 | Winter Barley plant response rating (winter barley; PREEMERGENCE, Rate 16 g/ha): 0 | Winter Barley plant response rating (winter barley; PREEMERGENCE, Rate 32 g/ha): 0 | Winter Barley plant response rating (winter barley; PREEMERGENCE, Rate 64 g/ha): 0 | Winter Barley plant response rating (winter barley; PREEMERGENCE, Rate 125 g/ha): 15 | Winter Barley plant response rating (winter barley; PREEMERGENCE, Rate 250 g/ha): 20 | Wheat (Winter) plant response rating (winter wheat; POSTEMERGENCE, Rate 4 g/ha): 0 | Wheat (Winter) plant response rating (winter wheat; POSTEMERGENCE, Rate 8 g/ha): 0 | Wheat (Winter) plant response rating (winter wheat; POSTEMERGENCE, Rate 16 g/ha): 0 | Wheat (Winter) plant response rating (winter wheat; POSTEMERGENCE, Rate 32 g/ha): 15 | Wheat (Winter) plant response rating (winter wheat; POSTEMERGENCE, Rate 64 g/ha): 20 | Wheat (Winter) plant response rating (winter wheat; POSTEMERGENCE, Rate 125 g/ha): 30 | Wheat (Winter) plant response rating (winter wheat; POSTEMERGENCE, Rate 250 g/ha): 20 | Wheat (Winter) plant response rating (winter wheat; PREEMERGENCE, Rate 4 g/ha): 0 | Wheat (Winter) plant response rating (winter wheat; PREEMERGENCE, Rate 8 g/ha): 0 | Wheat (Winter) plant response rating (winter wheat; PREEMERGENCE, Rate 16 g/ha): 0 | Wheat (Winter) plant response rating (winter wheat; PREEMERGENCE, Rate 32 g/ha): 0 | Wheat (Winter) plant response rating (winter wheat; PREEMERGENCE, Rate 64 g/ha): 0 | Wheat (Winter) plant response rating (winter wheat; PREEMERGENCE, Rate 125 g/ha): 10 | Wheat (Winter) plant response rating (winter wheat; PREEMERGENCE, Rate 250 g/ha): 20 | Ryegrass plant response rating (ryegrass; POSTEMERGENCE, Rate 4 g/ha): 0 | Ryegrass plant response rating (ryegrass; POSTEMERGENCE, Rate 8 g/ha): 0 | Ryegrass plant response rating (ryegrass; POSTEMERGENCE, Rate 16 g/ha): 0 | Ryegrass plant response rating (ryegrass; POSTEMERGENCE, Rate 32 g/ha): 5 | Ryegrass plant response rating (ryegrass; POSTEMERGENCE, Rate 64 g/ha): 20 | Ryegrass plant response rating (ryegrass; POSTEMERGENCE, Rate 125 g/ha): 30 | Ryegrass plant response rating (ryegrass; POSTEMERGENCE, Rate 250 g/ha): 55 | Ryegrass plant response rating (ryegrass; PREEMERGENCE, Rate 4 g/ha): 0 | Ryegrass plant response rating (ryegrass; PREEMERGENCE, Rate 8 g/ha): 0 | Ryegrass plant response rating (ryegrass; PREEMERGENCE, Rate 16 g/ha): 0 | Ryegrass plant response rating (ryegrass; PREEMERGENCE, Rate 32 g/ha): 20 | Ryegrass plant response rating (ryegrass; PREEMERGENCE, Rate 64 g/ha): 40 | Ryegrass plant response rating (ryegrass; PREEMERGENCE, Rate 125 g/ha): 60 | Ryegrass plant response rating (ryegrass; PREEMERGENCE, Rate 250 g/ha): 80
